How the values were obtained:
[1] = test system: SF-539; assay: Growth inhibition of human SF539 cells assessed as cell growth at 10 uM after 48 hrs by sulforhodamine B assay; format: functional; conditions: SF-539, 48 h, read-out: Activity
[2] = test system: A549; assay: Growth inhibition of human A549/ATCC cells assessed as cell growth at 10 uM after 48 hrs by sulforhodamine B assay; format: functional; conditions: A549, 48 h, read-out: Activity
[3] = test system: MDA-MB-231; assay: Growth inhibition of human MDA-MB-231 cells after 48 hrs by sulforhodamine B assay; format: functional; conditions: MDA-MB-231, 48 h
[4] = test system: CAKI-1; assay: Growth inhibition of human CAKI-1 cells after 48 hrs by sulforhodamine B assay; format: functional; conditions: CAKI-1, 48 h
[5] = test system: TK-10; assay: Growth inhibition of human TK10 cells after 48 hrs by sulforhodamine B assay; format: functional; conditions: TK-10, 48 h
[6] = test system: HOP-62; assay: Growth inhibition of human HOP62 cells after 48 hrs by sulforhodamine B assay; format: functional; conditions: HOP-62, 48 h
[7] = test system: NCI-H226; assay: Growth inhibition of human NCI-H226 cells after 48 hrs by sulforhodamine B assay; format: functional; conditions: NCI-H226, 48 h
[8] = test system: T47D; assay: Growth inhibition of human T47D cells after 48 hrs by sulforhodamine B assay; format: functional
[9] = Growth inhibition of human NCI-ADR-RES cells assessed as cell growth at 10 uM after 48 hrs by sulforhodamine B assay; format: functional; conditions: read-out: Activity
[10] = test system: HCT-15; assay: Growth inhibition of human HCT15 cells assessed as cell growth at 10 uM after 48 hrs by sulforhodamine B assay; format: functional; conditions: HCT-15, 48 h, read-out: Activity
[11] = test system: Malme-3M; assay: Growth inhibition of human MALME-3M cells after 48 hrs by sulforhodamine B assay; format: functional
[12] = test system: MOLT-4; assay: Growth inhibition of human MOLT4 cells after 48 hrs by sulforhodamine B assay; format: functional; conditions: MOLT-4, 48 h
[13] = test system: SK-MEL-28; assay: Growth inhibition of human SK-MEL-28 cells assessed as cell growth at 10 uM after 48 hrs by sulforhodamine B assay; format: functional; conditions: SK-MEL-28, 48 h, read-out: Activity
[14] = test system: MDA-MB-435; assay: Growth inhibition of human MDA-MB-435 cells assessed as cell growth at 10 uM after 48 hrs by sulforhodamine B assay; format: functional; conditions: MDA-MB-435, 48 h, read-out: Activity
[15] = test system: A498; assay: Growth inhibition of human A498 cells assessed as cell growth at 10 uM after 48 hrs by sulforhodamine B assay; format: functional; conditions: A498, 48 h, read-out: Activity
[16] = test system: PC-3; assay: Growth inhibition of human PC3 cells after 48 hrs by sulforhodamine B assay; format: functional, cell-based; conditions: PC-3, 48 h
[17] = test system: MDA-MB-435; assay: Growth inhibition of human MDA-MB-435 cells after 48 hrs by sulforhodamine B assay; format: functional, cell-based; conditions: MDA-MB-435, 48 h
[18] = test system: MDA-MB-231; assay: Growth inhibition of human MDA-MB-231 cells assessed as cell growth at 10 uM after 48 hrs by sulforhodamine B assay; format: functional; conditions: MDA-MB-231, 48 h, read-out: Activity
[19] = test system: RPMI-8226; assay: Growth inhibition of human RPMI8226 cells assessed as cell growth at 10 uM after 48 hrs by sulforhodamine B assay; format: functional; conditions: RPMI-8226, 48 h, read-out: Activity
[20] = test system: MDA-MB-468; assay: Growth inhibition of human MDA-MB-468 cells assessed as cell growth at 10 uM after 48 hrs by sulforhodamine B assay; format: functional; conditions: MDA-MB-468, 48 h, read-out: Activity
[21] = Growth inhibition of human NCI-ADR-RES cells after 48 hrs by sulforhodamine B assay; format: functional
[22] = test system: HOP-92; assay: Growth inhibition of human HOP92 cells assessed as cell growth at 10 uM after 48 hrs by sulforhodamine B assay; format: functional; conditions: HOP-92, 48 h, read-out: Activity
[23] = test system: HCT-15; assay: Growth inhibition of human HCT15 cells after 48 hrs by sulforhodamine B assay; format: functional; conditions: HCT-15, 48 h
[24] = test system: T47D; assay: Growth inhibition of human T47D cells assessed as cell growth at 10 uM after 48 hrs by sulforhodamine B assay; format: functional; conditions: read-out: Activity
[25] = test system: HL-60(TB); assay: Growth inhibition of human HL-60(TB) cells assessed as cell growth at 10 uM after 48 hrs by sulforhodamine B assay; format: functional; conditions: HL-60, 48 h, read-out: Activity
[26] = test system: TK-10; assay: Growth inhibition of human TK10 cells assessed as cell growth at 10 uM after 48 hrs by sulforhodamine B assay; format: functional; conditions: TK-10, 48 h, read-out: Activity
[27] = test system: SF-295; assay: Growth inhibition of human SF295 cells after 48 hrs by sulforhodamine B assay; format: functional, cell-based; conditions: SF-295, 48 h
[28] = Growth inhibition of human Hs 578T cells after 48 hrs by sulforhodamine B assay; format: functional
[29] = test system: MOLT-4; assay: Growth inhibition of human MOLT4 cells assessed as cell growth at 10 uM after 48 hrs by sulforhodamine B assay; format: functional; conditions: MOLT-4, 48 h, read-out: Activity
[30] = test system: SN12C; assay: Growth inhibition of human SN12C cells after 48 hrs by sulforhodamine B assay; format: functional
[31] = test system: COLO 205; assay: Growth inhibition of human COLO205 cells after 48 hrs by sulforhodamine B assay; format: functional; conditions: COLO 205, 48 h
[32] = test system: HCT-116; assay: Growth inhibition of human HCT116 cells after 48 hrs by sulforhodamine B assay; format: functional; conditions: HCT-116, 48 h
[33] = test system: SW-620; assay: Growth inhibition of human SW620 cells assessed as cell growth at 10 uM after 48 hrs by sulforhodamine B assay; format: functional; conditions: SW-620, 48 h, read-out: Activity
[34] = read-out: LC50 (the source's name)

O=C(Nc1cccc(-n2cc(-c3ccncc3)c(-c3ccc(Cl)c(O)c3)n2)c1)Nc1ccc(Cl)c(C(F)(F)F)c1
growth at 10 µM [1]: -26.1% | growth at 10 µM [2]: -21.3% | GI50 [3]: 0.488 µM | LC50 [3]: 11.4 µM | TGI [3]: 1.44 µM | GI50 [4]: 0.795 µM | TGI [4]: 2.63 µM | CC50 [4, 34]: > 32.5 µM | GI50 [5]: 1.5 µM | TGI [5]: 11.9 µM | CC50 [5, 34]: > 32.5 µM | GI50 [6]: 1.22 µM | TGI [6]: 7.83 µM | CC50 [6, 34]: > 32.5 µM | GI50 [7]: 1.35 µM | TGI [7]: > 32.5 µM | CC50 [7, 34]: > 32.5 µM | GI50 [8]: 1.12 µM | TGI [8]: > 32.5 µM | CC50 [8, 34]: > 32.5 µM | growth at 10 µM [9]: -16.9% | growth at 10 µM [10]: 1.04% | GI50 [11]: 0.576 µM | LC50 (concentration killing 50% of starting cells) [11]: 9.58 µM | TGI [11]: 1.65 µM | GI50 [12]: 0.777 µM | TGI [12]: 2.93 µM | CC50 [12, 34]: > 32.5 µM | growth at 10 µM [13]: -31.5% | growth at 10 µM [14]: -31.3% | growth at 10 µM [15]: 11.2% | IC50 [16]: 0.59 µM | CC50 [16, 34]: > 32.5 µM | GI50 [17]: 0.66 µM | IC50 [17]: 0.66 µM | TGI [17]: 1.77 µM | CC50 [17, 34]: 21.5 µM | growth at 10 µM [18]: -36.4% | growth at 10 µM [19]: -10.5% | growth at 10 µM [20]: -49.5% | GI50 [21]: 0.844 µM | TGI [21]: 2.75 µM | CC50 [21, 34]: > 32.5 µM | growth at 10 µM [22]: -30.7% | GI50 [23]: 0.867 µM | LC50 [23]: > 32.5 µM | TGI [23]: 13.8 µM | growth at 10 µM [24]: -7.12% | growth at 10 µM [25]: -11.2% | growth at 10 µM [26]: -1.62% | GI50 [27]: 0.74 µM | IC50 [27]: 0.74 µM | TGI [27]: 2.06 µM | CC50 [27, 34]: > 32.5 µM | GI50 [28]: 0.797 µM | TGI [28]: 11.2 µM | CC50 [28, 34]: > 32.5 µM | growth at 10 µM [29]: -22.1% | GI50 [30]: 1.12 µM | TGI [30]: 17.1 µM | CC50 [30, 34]: > 32.5 µM | GI50 [31]: 2.39 µM | LC50 (concentration killing 50% of cells) [31]: 16.1 µM | TGI [31]: 6.75 µM | GI50 [32]: 0.998 µM | TGI [32]: 3.94 µM | CC50 [32, 34]: > 32.5 µM | growth at 10 µM [33]: -19.7%

Cc1cc(C(=O)Nc2cccc(-n3cc(-c4ccncc4)c(-c4ccc(Cl)c(O)c4)n3)c2)ccc1Br
growth at 10 µM [1]: 95.5% | growth at 10 µM [2]: 95.3% | growth at 10 µM [9]: 99.7% | growth at 10 µM [10]: 97.4% | growth at 10 µM [13]: 93.5% | growth at 10 µM [14]: 93.4% | growth at 10 µM [15]: 102% | growth at 10 µM [18]: 70% | growth at 10 µM [19]: 92.1% | growth at 10 µM [20]: 93.2% | growth at 10 µM [22]: 97.8% | growth at 10 µM [24]: 87.7% | growth at 10 µM [25]: 172% | growth at 10 µM [26]: 113% | growth at 10 µM [29]: 76.1% | growth at 10 µM [33]: 125%
